“And” between values parts separate entries of the source, which are not always exact repeats. Equal entries are not always repeated. Where two headings read alike, the source gives them in different places. No end group written: not given here. *: point of attachment. AMC = Cc1cc(=O)oc2cc(N*)ccc12
Experiments:
[1] = molecular target: T1, BsAcuC (2c) (Bacillus subtilis, UniProt P39067); assay: Substrate screening assay (acyl-peptide-AMC); type: biochemical; conditions: BsAcuC (2c); for [AMC]: Transform RFU in [AMC]
T1 construct: made in house; host or cells: E. coli BL21 (DE3)
T1 sequence (P39067 1-387): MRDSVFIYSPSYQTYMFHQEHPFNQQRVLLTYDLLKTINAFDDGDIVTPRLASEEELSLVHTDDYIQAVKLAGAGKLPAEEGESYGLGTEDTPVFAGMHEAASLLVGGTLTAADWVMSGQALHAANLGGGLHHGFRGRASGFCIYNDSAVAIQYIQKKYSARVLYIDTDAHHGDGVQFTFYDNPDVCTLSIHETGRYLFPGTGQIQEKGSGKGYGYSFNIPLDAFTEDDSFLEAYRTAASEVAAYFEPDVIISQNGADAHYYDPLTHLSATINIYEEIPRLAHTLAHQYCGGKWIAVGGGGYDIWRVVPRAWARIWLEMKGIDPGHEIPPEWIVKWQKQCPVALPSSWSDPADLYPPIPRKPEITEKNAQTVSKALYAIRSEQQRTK
Experimental: (§1) Experiments with SIRT2 and SIRT5 were supplemented with NAD^+ (500 µM). Thereafter, a solution of trypsin (25 µL, 5.0 mg/mL; final concentration of 2.5 mg/mL) was added, and the development of the assay was allowed to proceed for 90 min at room temperature before fluorescence analysis. […] To this end, a single category is given to all conversions >48% on the heatmap. […] For the H4-derived peptide LGKbio no positive control was available.

[2] = test system: VcHdaH (5b); type: biochemical, Vibrio cholerae; conditions: VcHdaH (5b); for [AMC]: Transform RFU in [AMC]
[3] = test system: RsPrpH (1b); assay: Substrate screening assay (acyl-peptide-AMC); type: biochemical, Rhizorhabdus sp.; conditions: RsPrpH (1b); for [AMC]: Transform RFU in [AMC]
[4] = test system: Controls; assay: Substrate screening assay (acyl-peptide-AMC), control enzymes; type: biochemical
[5] = molecular target: PsApaH (4) (Pseudomonas sp. M30-35, UniProt A0A1Y0KY79); type: biochemical; conditions: PsApaH (4)
Experimental: as §1

[6] = molecular target: RwDmhA (1b) (Rhizorhabdus wittichii, UniProt A0A067XIQ6); type: biochemical; conditions: RwDmhA (1b)
[7] = molecular target: KpHdaH (1b) (Klebsiella pneumoniae, UniProt A0A377Z5F6); type: biochemical; conditions: KpHdaH (1b)
[8] = molecular target: LcApaH (3) (Legionella cherrii, UniProt A0A0W0SGS1); type: biochemical
[9] = test system: VsHdaH (1b); type: biochemical, Vibrio sp.; conditions: VKDAC
[10] = Transform RFU in [AMC], Controls, Sample 1
[11] = Transform RFU in [AMC], Controls, Sample 2
[12] = Transform RFU*2, Controls, Sample 1
[13] = Transform RFU*2, Controls, Sample 2

Substance | Relative Fluorescene Units (RFU) ([1]; Sample 1) | Relative Fluorescene Units (RFU) ([1]; Sample 2) | [AMC] ([1]; Sample 1) | [AMC] ([1]; Sample 2) | Relative Fluorescene Units (RFU) ([1]; Transform RFU*2, Sample 1) | Relative Fluorescene Units (RFU) ([1]; Transform RFU*2, Sample 2) | [AMC] ([2]; Sample 1) | [AMC] ([2]; Sample 2) | Relative Fluorescene Units (RFU) ([2]; Transform RFU*2, Sample 1) | Relative Fluorescene Units (RFU) ([2]; Transform RFU*2, Sample 2) | Relative Fluorescene Units (RFU) ([2]; Sample 1) | Relative Fluorescene Units (RFU) ([2]; Sample 2) | Relative Fluorescene Units (RFU) ([5]; Sample 1) | Relative Fluorescene Units (RFU) ([5]; Sample 2) | Relative Fluorescene Units (RFU) ([5]; Transform RFU*2, Sample 1) | Relative Fluorescene Units (RFU) ([7]; Sample 1) | Relative Fluorescene Units (RFU) ([7]; Sample 2) | Relative Fluorescene Units (RFU) ([7]; Transform RFU*2, Sample 1) | Relative Fluorescene Units (RFU) ([7]; Transform RFU*2, Sample 2) | Relative Fluorescene Units (RFU) ([9]; Transform RFU*2, Sample 1) | further results
QPKKdec (QPKK-{AMC}; not fully specified (residue 4); printed as QPKKdec; also: decanoyl-lysine (which Lys not given here); UniProt P04637 317-320, looked up, fragment) | 1598 RFU | 1156 RFU | 1560.55 nM | 1128.91 nM | 3196 RFU | 2312 RFU | 77.15 nM | 27.34 nM | 158 RFU | 56 RFU | 79 RFU | 28 RFU | 94 RFU | 100 RFU | 188 RFU | 50 RFU | 66 RFU | 100 RFU | 132 RFU | 126 RFU | Relative Fluorescene Units (RFU) ([3]; Sample 1): 32 RFU; Relative Fluorescene Units (RFU) ([3]; Sample 2): 43 RFU; [AMC] ([3]; Sample 1): 31.25 nM; [AMC] ([3]; Sample 2): 41.99 nM; Relative Fluorescene Units (RFU) ([3]; Transform RFU*2, Sample 1): 64 RFU; Relative Fluorescene Units (RFU) ([3]; Transform RFU*2, Sample 2): 86 RFU; Relative Fluorescene Units (RFU) [4]: 14990 RFU and 17431 RFU; [AMC] [4, 10]: 14.63867 µM; [AMC] [4, 11]: 17.02246 µM; Relative Fluorescene Units (RFU) [4, 12]: 29980 RFU; Relative Fluorescene Units (RFU) [4, 13]: 34862 RFU; Relative Fluorescene Units (RFU) ([5]; Transform RFU*2, Sample 2): 200 RFU; Relative Fluorescene Units (RFU) ([6]; Sample 1): 19 RFU; Relative Fluorescene Units (RFU) ([6]; Sample 2): 47 RFU; Relative Fluorescene Units (RFU) ([6]; Transform RFU*2, Sample 1): 38 RFU; Relative Fluorescene Units (RFU) ([6]; Transform RFU*2, Sample 2): 94 RFU; [AMC] [8]: 143.55 nM and 182.62 nM; Relative Fluorescene Units (RFU) ([9]; Transform RFU*2, Sample 2): 202 RFU; Relative Fluorescene Units (RFU) ([9]; Sample 1): 63 RFU; Relative Fluorescene Units (RFU) ([9]; Sample 2): 101 RFU
QPKKmyr (QPKK-{AMC}; not fully specified (residue 4); printed as QPKKmyr; also: myristoyl-lysine (which Lys not given here); UniProt P04637 317-320, looked up, fragment) | 313 RFU | 767 RFU | 305.66 nM | 749.02 nM | 626 RFU | 1534 RFU | -96.68 nM | -269.53 nM | -198 RFU | -552 RFU | -99 RFU | -276 RFU | 40 RFU | 113 RFU | 80 RFU | 178 RFU | 116 RFU | 356 RFU | 232 RFU | 354 RFU | Relative Fluorescene Units (RFU) ([3]; Sample 1): -108 RFU; Relative Fluorescene Units (RFU) ([3]; Sample 2): -824 RFU; [AMC] ([3]; Sample 1): -105.47 nM; [AMC] ([3]; Sample 2): -804.69 nM; Relative Fluorescene Units (RFU) ([3]; Transform RFU*2, Sample 1): -216 RFU; Relative Fluorescene Units (RFU) ([3]; Transform RFU*2, Sample 2): -1648 RFU; Relative Fluorescene Units (RFU) [4]: 6155 RFU and 7393 RFU; [AMC] [4, 10]: 6.01074 µM; [AMC] [4, 11]: 7.21973 µM; Relative Fluorescene Units (RFU) [4, 12]: 12310 RFU; Relative Fluorescene Units (RFU) [4, 13]: 14786 RFU; Relative Fluorescene Units (RFU) ([5]; Transform RFU*2, Sample 2): 226 RFU; Relative Fluorescene Units (RFU) ([6]; Sample 1): -346 RFU; Relative Fluorescene Units (RFU) ([6]; Sample 2): -865 RFU; Relative Fluorescene Units (RFU) ([6]; Transform RFU*2, Sample 1): -692 RFU; Relative Fluorescene Units (RFU) ([6]; Transform RFU*2, Sample 2): -1730 RFU; Relative Fluorescene Units (RFU) ([9]; Transform RFU*2, Sample 2): -1178 RFU; Relative Fluorescene Units (RFU) ([9]; Sample 1): 177 RFU; Relative Fluorescene Units (RFU) ([9]; Sample 2): -589 RFU
QPKKoct (QPKK-{AMC}; not fully specified (residue 4); printed as QPKKoct; also: octanoyl-lysine (which Lys not given here); UniProt P04637 317-320, looked up, fragment) | 2401 RFU | 1622 RFU | 2344.73 nM | 1583.98 nM | 4802 RFU | 3244 RFU | 67.38 nM | 71.29 nM | 138 RFU | 146 RFU | 69 RFU | 73 RFU | 88 RFU | 73 RFU | 176 RFU | -13 RFU | -43 RFU | -26 RFU | -86 RFU | 248 RFU | Relative Fluorescene Units (RFU) ([3]; Sample 1): 4 RFU; Relative Fluorescene Units (RFU) ([3]; Sample 2): 72 RFU; [AMC] ([3]; Sample 1): 3.91 nM; [AMC] ([3]; Sample 2): 70.31 nM; Relative Fluorescene Units (RFU) ([3]; Transform RFU*2, Sample 1): 8 RFU; Relative Fluorescene Units (RFU) ([3]; Transform RFU*2, Sample 2): 144 RFU; Relative Fluorescene Units (RFU) [4]: 6579 RFU and 10102 RFU; [AMC] [4, 10]: 6.4248 µM; [AMC] [4, 11]: 9.86523 µM; Relative Fluorescene Units (RFU) [4, 12]: 13158 RFU; Relative Fluorescene Units (RFU) [4, 13]: 20204 RFU; Relative Fluorescene Units (RFU) ([6]; Sample 1): 53 RFU; Relative Fluorescene Units (RFU) ([6]; Sample 2): 75 RFU; Relative Fluorescene Units (RFU) ([6]; Transform RFU*2, Sample 1): 106 RFU; Relative Fluorescene Units (RFU) ([6]; Transform RFU*2, Sample 2): 150 RFU; Relative Fluorescene Units (RFU) ([9]; Transform RFU*2, Sample 2): 194 RFU; Relative Fluorescene Units (RFU) ([9]; Sample 1): 124 RFU; Relative Fluorescene Units (RFU) ([9]; Sample 2): 97 RFU
QPKKpal (QPKK-{AMC}; not fully specified (residue 4); printed as QPKKpal; also: palmitoyl-lysine (which Lys not given here); UniProt P04637 317-320, looked up, fragment) | 139 RFU | 15 RFU | 135.74 nM | 14.65 nM | 278 RFU | 30 RFU | 22.46 nM | -39.06 nM | 46 RFU | -80 RFU | 23 RFU | -40 RFU | 40 RFU | 14 RFU | 80 RFU | 9 RFU | -4 RFU | 18 RFU | -8 RFU | 82 RFU | [AMC] [4]: 8.07129 µM and 10.51367 µM; Relative Fluorescene Units (RFU) ([5]; Transform RFU*2, Sample 2): 28 RFU; Relative Fluorescene Units (RFU) ([9]; Transform RFU*2, Sample 2): -38 RFU; Relative Fluorescene Units (RFU) ([9]; Sample 1): 41 RFU; Relative Fluorescene Units (RFU) ([9]; Sample 2): -19 RFU
